Each structure is given as a SMILES string. A value given as a limit tells only on which side of the number the result lay.

By inhibition is commonly meant how much of the control response was suppressed. One may read the IC50 as the midpoint of a concentration-inhibition curve. The low end stands for inhibition by little substance, the high end for a need for much substance.

The target in test [1] is T1, human indoleamine 2,3-dioxygenase 1 (hIDO1) (Homo sapiens, UniProt P14902).
T1 construct: His tag (N); purchased BPS Bioscience, San Diego, Calif., USA; host or cells: E. coli
The test is described as follows: In-vitro human indoleamine 2,3-dioxygenase 1 (IDO1) enzyme assay. Format: biochemical. Particulars: for inhibition at 1 µM: hIDO1 enzyme at 1.0 μM concentration; for inhibition at 10 µM: hIDO1 enzyme at 10.0 μM concentration; for IC50: hIDO1 enzyme. Put shortly: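 His-tagged hIDO1 (E. coli, 50 ng) incubated with 80 μM tryptophan, 10 mM ascorbate, 10 μM methylene blue, catalase and 0.01% Tween-20 in 50 mM sodium phosphate pH 6.5, 60 min, 37 °C. Piperidine converts N-formylkynurenine to fluorescent NFK-PIP (ex 400/em 500 nm); IC50 by nonlinear regression.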

The target in test [2] is T2, human tryptophan 2,3-dioxygenase (hTDO) (Homo sapiens, UniProt P48775).
T2 construct: His tag (N); purchased BPS Bioscience, San Diego, Calif., USA; host or cells: E. coli
The test is described as follows: In-vitro human tryptophan 2,3-dioxygenase (TDO) enzyme assay. Particulars: for inhibition at 1 µM: hTDO enzyme at 1.0 μM concentration; for inhibition at 10 µM: hTDO enzyme at 10.0 μM concentration. It counts as biochemical. In a few lines:
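N-His-tagged hTDO expressed in E. coli (125 ng) incubated with 200 μM L-tryptophan, 100 mM sodium phosphate pH 7.0, 0.01% Tween-20, 100 μM ascorbate, 60 min at 37 °C. Product converted with 200 mM piperidine (65 °C, 20 min) to NFK-PIP, fluorescence 400/500 nm; IC50 by nonlinear regression.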

T1 sequence (P14902 whole entry): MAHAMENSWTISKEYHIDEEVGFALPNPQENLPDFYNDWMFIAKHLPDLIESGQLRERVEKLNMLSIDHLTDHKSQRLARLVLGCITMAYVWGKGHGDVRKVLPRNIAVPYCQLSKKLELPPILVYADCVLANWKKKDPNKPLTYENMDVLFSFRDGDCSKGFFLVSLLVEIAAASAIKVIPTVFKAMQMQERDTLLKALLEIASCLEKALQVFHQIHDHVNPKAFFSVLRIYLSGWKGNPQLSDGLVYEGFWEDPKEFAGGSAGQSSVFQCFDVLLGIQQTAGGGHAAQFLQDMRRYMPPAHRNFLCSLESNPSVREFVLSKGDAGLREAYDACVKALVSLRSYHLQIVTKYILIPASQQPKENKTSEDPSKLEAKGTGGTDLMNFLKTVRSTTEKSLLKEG
T2 sequence (P48775 whole entry): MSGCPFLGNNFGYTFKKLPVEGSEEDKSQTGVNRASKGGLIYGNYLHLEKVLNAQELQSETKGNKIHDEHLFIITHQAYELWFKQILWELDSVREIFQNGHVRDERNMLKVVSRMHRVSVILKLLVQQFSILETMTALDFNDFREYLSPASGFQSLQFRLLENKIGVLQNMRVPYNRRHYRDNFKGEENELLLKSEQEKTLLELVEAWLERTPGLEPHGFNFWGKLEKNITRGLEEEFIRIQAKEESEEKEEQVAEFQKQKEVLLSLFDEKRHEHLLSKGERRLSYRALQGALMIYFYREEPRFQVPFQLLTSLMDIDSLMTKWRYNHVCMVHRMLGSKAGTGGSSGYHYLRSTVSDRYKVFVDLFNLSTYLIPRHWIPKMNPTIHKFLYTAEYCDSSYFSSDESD

Regarding `CC1=C(c2ccccc2)C(CC(=O)C2CCC(=NO)CC2)n2cncc21` (centres unmarked) [Example 177, 4-[2-(7-Methyl-6-phenyl-5H-pyrrolo[1,2-c]imidazol-5-yl)-acetyl]-cyclohexanone oxime], the inhibition at 1 µM in test [1] was at most 50%; in test [2], at least 50%. In test [1], the inhibition at 10 µM is at least 50%.

On to `O=C(CC1C2=C(CCCC2)c2cncn21)c1cccc(Cl)c1` (centres unmarked) [Example 3], for which the inhibition at 10 µM is at most 50% in test [1] and at least 50% in test [2].

As for `CC1=C(c2ccccc2)C(CC(=O)c2ccc(C(=O)O)cc2)n2cncc21` (centres unmarked) [Example 24, 4-[2-(7-Methyl-6-phenyl-5H-pyrrolo[1,2-c]imidazol-5-yl)-acetyl]-benzoic acid], the inhibition at 1 µM in test [1] was at most 50%; in test [2] it was at least 50%. In addition, the inhibition at 10 µM in test [1] and in test [2] was at least 50% each time.

Turning to `CC1=C(c2ccccc2)C(CC(O)C2CCN(C(=O)OCc3ccccc3)CC2)n2cncc21` (centres unmarked) [Example 137, 4-[1-Hydroxy-2-(7-methyl-6-phenyl-5H-pyrrolo[1,2-c]imidazol-5-yl)-ethyl]-piperidine-1-carboxylic acid benzyl ester], in test [1], the half-inhibitory concentration (IC50) was below 500 nM, the inhibition at 1 µM is at least 50% and the inhibition at 10 µM was at least 50%. Also, the inhibition at 1 µM in test [2] was at least 50%.

Consider `CC1=C(c2ccccc2)C(CC(=O)c2ccc(-c3cncnc3)cc2)n2cncc21` (centres unmarked) [Example 54], for which, in test [1], the inhibition at 1 µM is at least 50% and the inhibition at 10 µM was at least 50%. Also, in test [2], the inhibition at 1 µM was at least 50%.

In test [1], `CC1=C(c2ccccc2)C(CC(=O)C2CCN(Cc3ccccc3)CC2)n2cncc21` (centres unmarked) [Example 140] returned an inhibition at 1 µM of at most 50% and an inhibition at 10 µM of at most 50%. In test [2], this compound returned an inhibition at 1 µM of at most 50%.

Turning to `CC1=C(c2ccccc2)C(CC(O)c2cccc(Cl)c2)n2cncc21` (centres unmarked) [Example 19, 1-(3-Chloro-phenyl)-2-(7-methyl-6-phenyl-5H-pyrrolo[1,2-c]imidazol-5-yl)-ethanol], in test [1], the IC50 is below 500 nM, the inhibition at 1 µM was at least 50% and the inhibition at 10 µM was at least 50%. In test [2], this compound gave an inhibition at 1 µM of at least 50% and an inhibition at 10 µM of at least 50%.

In test [1], `CCOC(=O)N1CCC(C(O)CC2C(c3ccccc3)=C(C)c3cncn32)CC1` (centres unmarked) [Example 148] had an IC50 below 500 nM, an inhibition at 1 µM of at least 50% and an inhibition at 10 µM of at least 50%. For the same compound, in test [2], the inhibition at 1 µM was at most 50%.

Consider `CC1=C(c2ccccc2)C(CC(=O)c2ccsc2)n2cncc21` (centres unmarked) [Example 45, 2-(7-methyl-6-phenyl-5H-pyrrolo[1,2-c]imidazol-5-yl)-1-(thiophen-3-yl)ethan-1-one], for which, in test [1], the inhibition at 1 µM was at most 50% and the inhibition at 10 µM is at least 50%. In test [2], the inhibition at 1 µM was at least 50%.

`CC1=C(c2cccc(Cl)c2)C(CC(O)C2CCCCC2)n2cncc21` (centres unmarked) [Example 96]: the inhibition at 1 µM in test [1] and in test [2] was at most 50% each time. Further, the inhibition at 10 µM in test [1] is at least 50%.

As to `CC1=C(c2ccccc2)C(CC(=O)c2ccc(-c3ccc(-c4ccccc4)cc3)cc2)n2cncc21` (centres unmarked) [Example 65], in test [1], the inhibition at 1 µM is at most 50% and the inhibition at 10 µM was at most 50%. Moreover, in test [2], the inhibition at 1 µM is at most 50%.

As to `CC1=C(c2ccccc2)C(CC(O)C2CCCCC2)n2cncc21` (centres unmarked) [Example 89, 1-Cyclohexyl-2-(7-methyl-6-phenyl-5H-pyrrolo[1,2-c]imidazol-5-yl)-ethane-1-ol], in test [1], the IC50 is below 500 nM, the inhibition at 1 µM is at least 50% and the inhibition at 10 µM was at least 50%. Besides, in test [2], the inhibition at 1 µM is at least 50% and the inhibition at 10 µM was at least 50%.

Regarding `O=C(CC1C2=C(CCCC2)c2cncn21)c1cc(F)ccc1F` (centres unmarked) [Example 9], the figures for the inhibition at 10 µM in test [1] and in test [2] were at most 50% and at least 50%, respectively.

Regarding `CC1=C(c2ccccc2)C(CC(O)c2ccc(C(=O)Nc3ccc(Cl)cc3)cc2)n2cncc21` (centres unmarked) [Example 82], in test [1], the inhibition at 1 µM is at most 50% and the inhibition at 10 µM was at least 50%. In test [2], this compound had an inhibition at 1 µM of at most 50%.

Source of the values: US20190031665A1, “DERIVATIVES OF PYRROLOIMIDAZOLE OR ANALOGUES THEREOF WHICH ARE USEFUL FOR THE TREATMENT OF INTER ALIA CANCER” (EMCURE PHARMACEUTICALS LIMITED, priority 2016, published 2019).
